{"source": "patent US5409946A", "about": "“Isoxazole, isothiazole and pyrazole compounds that enhance cognitive function” (Abbott Laboratories, priority 1993, dated 1995)", "key": {"[1]": {"system": "basal forebrain neurotransmission / cortical cerebral blood flow", "experiment": "Cerebral blood flow (laser-doppler flowmetry) and mean arterial pressure with basal forebrain stimulation", "assay_type": "in vivo, male Sprague-Dawley rats", "experimental": "Methods for surgical preparation of rats for electrical stimulation of brain and measurement of CBF have been previously described (Nakai et al., Am. J. Physiol., 1982, 243: 226) and are summarized below.\nStudies are conducted on male Sprague-Dawley rats that are maintained in a thermally-controlled (26°-27° C.), light-cycled (7.00 hour on-19.00 hour off) environment, fed standard rat chow and given water ad libitum. Anesthesia is induced with halothane (3.5%; balance O2) delivered through a nose mask and maintained at 2% during the initial surgery. Thin-wall vinyl catheters (o.d.=0.03 inch) are placed in each femoral artery and vein, and the trachea is cannulated.\nAnimals are subsequently co-anesthetized with urethane (1.5 g/kg, s.c.) and placed in a stereotaxic frame with the head positioned so that the floor of the IVth ventricle was horizontal (incisor bar position: -11 mm. ). After connecting the tracheal cannula to a small-animal respirator, the animals are temporarily paralyzed with d-tubocurarine (0.6 mg/kg/h, i.m.), and ventilated (80 cpm) with 100% O2. Arterial pressure (AP) and heart rate (HR) are continuously monitored through one of the arterial catheters connected to a Statham P23Db transducer that is coupled to a chart recorder. The level of anesthesia during surgery or subsequent experimental testing is assessed by the AP response to tail pinch, with increasing levels of arousal giving rise to irregular AP readings. Booster doses of urethane (250 mg/kg, s.c.) are given as needed.\nBilateral craniotomies (approximately 4 mm×11 mm) are performed overlying the frontoparietal cortices taking care to leave the dura intact. Halothane is delivered at a reduced rate of 1% during cranial surgery and discontinued afterward. A small volume (about 0.2 ml) of arterial blood is sampled after completion of all surgery for measurement of PO2, PCO2 and pH by a blood gas analyzer. Arterial blood gases are maintained so that PO2 was greater than 100 mm Hg, PCO2 =33-38 mmHg, and pH=7.35-7.45. Maintaining these values is accomplished by adjusting the stroke volume of the ventilator. Once appropriate physiological parameters are obtained (approximately 30 min), the experimental protocol is initiated.\nThe basal forebrain (BF) is stimulated with cathodal current delivered through a stainless steel concentric bipolar electrode ([…]) made by Rhodes Medical Instruments (Model SNEX-100). Electrical pulses are generated by a square wave stimulator (Grass, Model S-88) and constant current is passed through a photoelectric stimulus-isolation unit (Grass, Model PSIU6). The stimulus current is measured on an oscilloscope by continuously displaying the voltage drop across a 10-ohm resistor.\nThe procedure for eliciting an increased cortical CBF response requires the stereotaxic placement of the stimulating electrode into the BF. For positioning, the electrode is inclined posteriorly to 18 degrees, and the stereotaxic coordinates used were 5.0 mm posterior to, and 2.6 mm lateral to bregma (stereotaxic zero reference point). […] These parameters have been shown previously to elicit maximal increases in cortical CBF (Arneric, Excerpta Medica International Congress Series, 869:381, 1989). The region of the BF that selectively affects cortical CBF is restricted, with electrode movements of 0.5 mm dorsal or ventral to this site eliciting potent vasodepressor responses in addition to the increases in CBF. […] When CBF increases of approximately 100% or greater are repeatedly obtained in the absence of significant changes in AP (<10 mm Hg) or HR (<10 beats/min.), and when the perfusion rate is stable in the absence of BF stimulation, the experimental testing is started.\nThe principles and technical aspects of laser-doppler flowmetry (LDF) are presented in detail in Bonner et al., Appl. Opt., 1981, 20:2097 and Stern et al., Am. J. Physiol., 1977, 232:H441. […]"}, "[2]": {"system": "time spent in the open arms (anxiolytic activity)", "experiment": "Mouse elevated plus-maze", "assay_type": "in vivo, CD1 mice", "description": "The mouse elevated plus-maze is a commonly-used conflict test that probes anxiolytic activity of test compounds (Lister, Psychopharmacology, 1987, 92 180). It is based on the fact that exposure of mice to an elevated open arm leads to an avoidance response considerably stronger than that evoked by exposure to an enclosed arm.\nThe apparatus required to perform this test is made of plywood and consists of two open arms (17×8 cm) and two enclosed arms (17×8×15 cm) extending from a central platform (8×8 cm). It is mounted on a plywood base rising 39 cm above the floor. Mice are released on the central platform and the time spent in the open and enclosed arms is recorded during a 5 minute test period.\nThe compound of Example 2 (0.0108-1.08 μmol/kg, i.p.) was administered to CD1 mice (n=12 per group) 15 minutes before the test."}, "spike wave discharges": {"system": "spike wave discharges", "experiment": "Attenuation of petit mal absence-like spike wave discharges (EEG)", "assay_type": "in vivo, male Wistar rats", "details": "for Total spike wave duration: p < 0.05", "experimental": "Animals: Male albino rats of the Wistar strain (CAMM Research) were maintained on a 12:12 hour light-dark cycle and individually housed throughout these experiments. They were fed standard rodent diet with food and water provided ad libitum.\nEEG Recordings: To record spike wave discharges, rats were surgically implanted with permanently affixed EEG electrodes over the frontal codex using previously described techniques (Radek, Brain Res., 1993, in press). After at least a ten day recovery from this surgery, EEG recordings were made inside darkened sound attenuating chambers. Rats were allowed to move freely within the chambers and computerized activity monitors recorded animal motion during these studies. Only those rats that express spike wave discharges, as identified from preliminary recordings, were used to test the effects of nicotinic agents.\nDrug studies: EEG recordings were obtained from each rat for a period of 20 minutes of total waking immobility immediately after administration of drug, or a drug-free control solution. Immobility was characterized as the absence of infrared beam interruptions from the activity monitor system. Spike wave activity was identified as regular 6-10 Hz complexes with amplitudes of 0.4 to 1.0 mV. The total spindling duration for 20 minutes of waking immobility was calculated by determining the length (in seconds) of each spike wave burst, and adding each of these times together to obtain a total spindle time for the recording session. Each rat was administered the control solution and one or two doses of the test compounds and each dosing was given at least 48 hours after the previous treatment.\nThe compound of Example 2 was dissolved in saline to the desired concentration."}}, "note": "“Also recorded” adds a separate entry of the source."}
{"smiles": "Cc1cc([C@@H]2CCCN2C)on1.O=C(O)C(=O)O", "note": "[Example 2, 3-Methyl-5-(1-methyl-2(S)-pyrrolidinyl)-isoxazole oxalate salt]", "values": [{"measurement": "BF-elicited CBF % change from pre-drug control", "setting": "[1]; 0.004 μmol/kg i.v.", "result": "+68%"}, {"measurement": "MAP % change from pre-drug control", "setting": "[1]; 0.004 μmol/kg i.v.", "result": "+5%"}, {"measurement": "resting CBF % change from pre-drug control", "setting": "[1]; 0.004 μmol/kg i.v.", "result": "+5%"}, {"measurement": "MAP % change from pre-drug control", "setting": "[1]; 0.040 μmol/kg i.v.", "result": -5, "unit": "%"}, {"measurement": "resting CBF % change from pre-drug control", "setting": "[1]; 0.040 μmol/kg i.v.", "result": -2, "unit": "%"}, {"measurement": "BF-elicited CBF % change from pre-drug control", "setting": "[1]; 0.040 μmol/kg i.v., *p < 0.05", "result": "+60%"}, {"measurement": "MAP % change from pre-drug control", "setting": "[1]; 0.400 μmol/kg i.v.", "result": -13, "unit": "%"}, {"measurement": "resting CBF % change from pre-drug control", "setting": "[1]; 0.400 μmol/kg i.v.", "result": -6, "unit": "%"}, {"measurement": "BF-elicited CBF % change from pre-drug control", "setting": "[1]; 0.400 μmol/kg i.v., *p < 0.05", "result": "+68%"}, {"measurement": "effect on resting CBF and the BF-elicited CBF response", "setting": "[1]; i.v., low concentrations, n=3", "result": "effective in enhancing resting CBF and the BF-elicited CBF response"}, {"measurement": "effects on MAP / blood pressure", "setting": "[1]; i.v., oxalate salt", "result": "No remarkable effects on MAP; also recorded: no overt effects on blood pressure"}, {"measurement": "Elevated Plus-Maze (EPM) doses with significant effect", "setting": "[2]; i.p., p<0.05", "result": "0.036 to 1.08", "unit": "µmol/kg"}, {"measurement": "Elevated Plus-Maze (EPM) result", "setting": "[2]; i.p., time in open arms, p<0.05, oxalate salt", "result": "clear anxiolytic response; also recorded: significant"}, {"measurement": "anxiolytic potency relative to (-)-nicotine", "setting": "[2]; more potent than (-)-nicotine", "result": "at least 10 fold"}, {"measurement": "Total spike wave duration", "setting": "spike wave discharges; Table 8, 1.9 μmol/kg i.p.", "result": "26.7 ± 9.2", "unit": "s"}, {"measurement": "Total spike wave duration", "setting": "spike wave discharges; Table 8, 6.2 μmol/kg i.p.", "result": "33.1 ± 10.2", "unit": "s"}, {"measurement": "Total spike wave duration", "setting": "spike wave discharges; Table 9, 10 μmol/kg p.o.", "result": "25.6 ± 7.5", "unit": "s"}, {"measurement": "Total spike wave duration", "setting": "spike wave discharges; Table 11, 6.2 μmol/kg i.p.", "result": "8.2 ± 3.8", "unit": "s"}, {"measurement": "effect on incidence of spike wave discharges", "setting": "spike wave discharges; i.p., 20 min waking immobility, p<0.05 where significant", "result": "significantly lowered the incidence of spike wave discharges"}, {"measurement": "effect on incidence of spike wave discharges", "setting": "spike wave discharges; oral, 10.0 μmol/kg, p<0.05", "result": "significantly lowered the incidence of spike wave discharges"}]}
